Test results taken from publication PMC12257390, “Characterization of Clinically Evaluated Small-Molecule Inhibitors of PD-L1 for Immunotherapy” (ACS Medicinal Chemistry Letters, 2025).
Read-outs that look alike come from different tables or passages of the source.

Assays:
PD-L1 [1] = target: T1, PD-L1 (Homo sapiens, UniProt Q9NZQ7); test: X-ray co-crystal structure ([…] Å), 1H NMR binding; IC50 from HTRF PD-1/PD-L1 disruption
T1 construct: gene CD274

PD-L1 [2] = target: T1, PD-L1; test: as above; remark: listed apart in the source

T1 sequence (Q9NZQ7 19-290): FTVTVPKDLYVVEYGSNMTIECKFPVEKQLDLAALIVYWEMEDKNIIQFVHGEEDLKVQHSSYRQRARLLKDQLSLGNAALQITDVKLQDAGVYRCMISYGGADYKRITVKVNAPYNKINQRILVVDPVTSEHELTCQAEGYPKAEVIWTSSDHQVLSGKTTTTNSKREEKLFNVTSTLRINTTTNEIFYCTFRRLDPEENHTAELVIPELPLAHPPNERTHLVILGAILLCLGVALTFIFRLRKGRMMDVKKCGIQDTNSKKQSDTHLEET

| IC50 (PD-L1 [1]) | IC50 (PD-L1 [2]) | SMILES |
| --- | --- | --- |
| 2.59 ± 0.09 nM |  | Cc1c(Nc2nccc3cc(CN4CC[C@@H](O)C4)cnc23)cccc1-c1cccc(-c2nc3cc(CN4CC[C@@H](C(=O)O)C4)cc(C#N)c3o2)c1C [INCB086550] |
|  | 6.88 ± 0.12 nM | Cc1c(C=Cc2cc(CNC(C)(CO)C(=O)O)ccc2C(F)(F)F)cccc1-c1ccc2c(c1)OCCO2 (centres unmarked) [MAX-10181] |
